# Earlier results, collected in US20070183984A1, “CALCIUM PHOSPHATE SALTS IN ORAL COMPOSITIONS SUITABLE AS A TOOTH REMINERALIZING AGENT” (WM. WRIGLEY JR. COMPANY, priority 2006, published 2007).
# Details: g in about 100 ml of water at about 20° C.
row,solubility in water,Compound
1,about 5%,polyglutamic acid
2,about 0.6%,O=C(O)/C=C/C(=O)O [fumaric acid]
3,about 55%,O=C(O)CC(O)C(=O)O (stereo not drawn) [malic acid]
4,about 5%,polyaspartic acid

# Details: octanol/water partition coefficient
row,Log Pow,Compound
1,−1.26,O=C(O)CC(O)C(=O)O (stereo not drawn) [malic acid]
2,0.08,O=C(O)CCCCC(=O)O [adipic acid]
